Results published in PubChem BioAssay AID743417 (Broad Institute, 2014).
Several values for one entry are separate records, joined by “and”; a condition that tells them apart may be missing. Identical values can stand only once. Records with an inconclusive call do not appear. Activity calls are given as the source filed them.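 How the source made its calls: active means compounds lowering the luciferase signal with a fitted half-maximal dose at most twice their top valid dose (cut at about 30 µM in these data); inconclusive means flat fits with moderate signal loss, or poor fits; inactive means the rest.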

Test system: Clone20 osteoblast Shn3 3'UTR firefly luciferase, 24 h
Experiment: Shn3 3'UTR reporter inhibitors, dose response, cell-based, Clone20 osteoblasts, luminescence, dry powder, set 2 (AID 743417)

SMILES	AC50
Cc1ccccc1OCCn1cc(C(=S)N2CCCC2)c2ccccc21	24.3 µM
Cc1ccccc1OCC(O)Cn1c(=N)n(Cc2ccccc2)c2ccccc21 (configuration not stated)	2.25 µM
Cc1ccc(C(=O)OCn2ncc(Cl)c(Cl)c2=O)cc1	5.07 µM
O=C(Nc1ccncc1)c1ccc(Cl)c(S(=O)(=O)N2CCc3ccccc32)c1	3.19 µM
C#CC(=O)N(c1cccc(OC)c1)C(C(=O)NC1CCCC1)c1cccs1 (configuration not stated)	3.8 µM
CCOC(=O)COc1ccc2ccccc2c1/C=C/[N+](=O)[O-]	5.2 µM
Cc1cc(C)nc(/N=C(\N)Nc2ccc(-c3ccccc3)cc2)n1	4.45 µM
COc1cc(OC)c(OC)cc1CNc1cc(C)ccc1OC	18.1 µM
O=c1[nH]c(Nc2nc3ccccc3o2)nc2c1CCCC2	7.71 µM
C[C@H]1CCC/C=C/[C@@H]2C[C@H](O)C[C@H]2[C@H](O)/C=C/C(=O)O1	3.15 µM and 2.2 µM
O=C(Nc1cccc(S(=O)(=O)Nc2ccc(Cl)cc2)c1)c1ccc(Cl)nc1	0.606 µM
CCn1c(=O)c(C(=O)Nc2nc3ccccc3[nH]2)c(O)c2ccccc21	6.01 µM
CC(=O)N1c2ccc(S(=O)(=O)N3CCC(C(=O)N4CCN(c5ccccc5F)CC4)CC3)cc2CC1C (configuration not stated)	5.41 µM
COc1ccc(-c2nc(-c3ccc(NC(=O)c4ccncc4)cc3)no2)cc1OC	2.36 µM
CC(C)c1ccc(NC(=O)Nc2nc(C(N)COCc3ccccc3)cs2)cc1 (configuration not stated)	5.99 µM
Cc1ccc(CS(=O)(=O)c2ncc(Cl)c(C(=O)Nc3ccc(OC(F)F)cc3)n2)cc1	2.34 µM
O=C(Nc1ccc2oc(-c3ccncc3)nc2c1)c1ccc([N+](=O)[O-])o1	18.6 µM
COc1cc(OC)c(OC)cc1CNC(=O)c1cccc(S(=O)(=O)N2CCc3ccccc3C2)c1	2.39 µM
Cc1cccc(Cn2c(NCCO)nc3c2c(=O)n(C)c(=O)n3C)c1	0.528 µM
COc1ccc2c(c1)c(CC(=O)Nc1cc(C)ccc1C)c(C)n2C(=O)c1ccc(Cl)cc1	5.69 µM
O=C(/C=C/Nc1ccccc1Br)c1ccccn1	1.8 µM
CCc1c(C)nc2ncnn2c1NCCc1ccc(Cl)cc1	2.17 µM
Cc1cccc(NC(=O)c2nc(S(=O)(=O)Cc3ccccc3)ncc2Cl)c1	2.66 µM
CCN(CC)S(=O)(=O)c1ccc(S(=O)(=O)N2CCCC(C(=O)NC3CC3)C2)cc1 (configuration not stated)	2.9 µM
COC(=O)Oc1ccc(/C=C/C(=O)OC(C)C)cc1OC(=O)OC	3.29 µM
Oc1ccc(CN2CCCc3ccccc32)c2cccnc12	5.4 µM

SMILES	AC50
O=[N+]([O-])c1cc(S(=O)(=O)C(F)(F)F)ccc1Sc1nc2ccccc2s1	2.45 µM
CSc1nnc(NC(=O)c2nc(S(=O)(=O)Cc3ccc(C)cc3)ncc2Cl)s1	3.18 µM
CN1CCN(S(=O)(=O)c2ccc(Sc3nnnn3-c3ccccc3)c([N+](=O)[O-])c2)CC1	3.9 µM
c1ccc(CN2CCN(c3ncnc4c3[nH]c3ccccc34)CC2)cc1	2.06 µM
O=C(Cc1ccc(Cl)cc1Cl)Nc1ccncc1Cl	1.63 µM
CC(CNC(=O)c1cc(COc2ccc3ncccc3c2)on1)c1ccccc1 (configuration not stated)	3.73 µM
COc1ccc(CN2CCC(C(=O)Nc3ccc(Oc4cccnc4)cc3)CC2)c(C)c1C	3.68 µM
Cc1cc(C(=O)CSc2nc(N)cc(=O)[nH]2)c(C)n1-c1cccc(F)c1	1.66 µM
CCOC(=O)N1CCN(CC(c2ccccc2)c2ccccc2)CC1	14.1 µM
CCCc1nc2c(=O)n(C)c(=O)nc-2n(C)n1	2.17 µM
CS(=O)(=O)c1ccc(C(=O)OCC(=O)N2CCOCC2)cc1[N+](=O)[O-]	17.5 µM
COC(=O)C1=C(c2ccc3ccccc3c2)C[C@@H]2CC[C@H]1N2C(=O)NCC1CC1	6.86 µM
CNC[C@H](CC1CCCCC1)NC[C@H](Cc1ccccc1)NCCC12CC3CC(CC(C3)C1)C2	5.51 µM
CCC(C)NS(=O)(=O)c1ccc(S(=O)(=O)N2CCCC3(CCCCC3)C2)cc1 (configuration not stated)	3.44 µM
CCCCn1c(-c2nonc2NC(=O)c2ccccc2Cl)nc2ccccc21	1.39 µM
Cc1ccc(S(=O)(=O)N2CCN(c3ncnc4ccccc34)CC2)cc1	1.56 µM
CCOC(=O)c1c(C)[nH]c(C)c1C(=O)CSc1nc2ccccc2c(=O)n1-c1ccc(CC)cc1	5.36 µM
COCc1c(C(=O)Nc2cccc(S(=O)(=O)N3CCCCC3)c2)oc2ccccc12	9.63 µM
O=C(c1ccccc1)C(CCC(CN1CCOCC1)C(=O)c1ccccc1)CN1CCOCC1 (configuration not stated)	12.8 µM
CCC(=O)N1CCN(c2ccc(NC(=O)c3ccc([N+](=O)[O-])o3)cc2Cl)CC1	0.85 µM
COc1cc(C#Cc2c(-c3cncn3C)n(C)c3ccc(-c4ccc(OC)nc4)cc23)cc(OC)c1	20.5 µM
COc1ccccc1-c1c(-c2ccc(O)cc2O)n[nH]c1C(F)(F)F	0.708 µM
CC(=O)c1cccc(NS(=O)(=O)c2ccc(N/C=C\C(=O)c3ccc(C)cc3)cc2)c1	1.51 µM
Cc1cc2c(cc(C(=O)OC(C(=O)NC3CCCCC3)C(C)C)n2C)o1 (configuration not stated)	5.9 µM
CN(C)c1ccc(/C=C/c2ccc3ccccc3n2)cc1	1.33 µM
CCCCCCCCOC(=O)c1cc([N+](=O)[O-])c(Sc2ncnc3nc[nH]c23)c([N+](=O)[O-])c1	2.81 µM

SMILES	AC50
Nc1nc(Cl)cc(N2CCC(c3cc(-c4ccc(Cl)cc4Cl)n[nH]3)CC2)n1	4.94 µM
COCC1CCCCN1C(=O)c1cc(COc2ccc3ncccc3c2)on1 (configuration not stated)	0.33 µM
CN(C)c1ccc(C=Cc2ccnc3c(O)cccc23)cc1	1.43 µM
O[C@@H]1CN(Cc2ccc(-n3cccn3)cc2)CC[C@H]1N1CCN(c2ccccc2F)CC1	2.13 µM
CCN(CC)S(=O)(=O)c1ccc(N(C)Cc2ccc(C(F)(F)F)cc2)nc1	5.85 µM
Cc1ccc(CNC(=O)CSc2c3c(nc4ccc(Cl)cc24)CCCC3)o1	5.98 µM
CC(=O)Nc1ccc(NC(=O)c2nc(S(=O)(=O)Cc3cccc(C)c3)ncc2Cl)cc1	0.528 µM
Cc1cc(C)c(C)c(S(=O)(=O)N2CCN(c3ncnc4ccccc34)CC2)c1C	1.46 µM
Cc1nc([N+](=O)[O-])c(Br)n1CC(=O)c1ccc2ccccc2c1	10.7 µM
CC1CCN(c2ccccc2NC(=S)NC(=O)c2ccc(-c3cccc([N+](=O)[O-])c3)o2)CC1	3.07 µM
COc1ccc(CNCC(O)COc2cccc3c2OC(C)(C)C3)cc1 (configuration not stated)	1.68 µM
Cc1cccc(NC(=O)CSc2nc3ccccc3c(=O)n2C)c1C	2.98 µM
COC(=O)C12OCC34C(CC5C(C)=C(O)C(=O)CC5(C)C3C(O)C1O)OC(=O)C(OC(=O)C=C(C)C)C24 (configuration not stated)	< 0.26 µM
CCc1nnc(NC(=O)c2nc(S(=O)(=O)Cc3cccc(C)c3)ncc2Cl)s1	2.51 µM
CCn1cc(C(=O)NCc2ccco2)c(=O)c2cc(S(=O)(=O)N3CC(C)CC(C)C3)ccc21 (configuration not stated)	0.778 µM
CC(C)=CCc1cc([C@@H]2COc3c(ccc4c3C=CC(C)(C)O4)C2)c(O)cc1O	7.54 µM
CCN(CC)C(=O)[C@H]1C[C@H](CC(=O)NC/C=C(\C)CCC=C(C)C)C(=O)N2CCc3c([nH]c4cc(CCC(=O)N(C)C)ccc34)[C@]12C	1.37 µM
CCCOc1ccc(C(=O)C(CN2CCCC2)c2ccccc2)cc1 (configuration not stated)	4.84 µM
CCCC(=O)N1CCN(c2ccc(NC(=O)c3ccc([N+](=O)[O-])o3)cc2Cl)CC1	0.7 µM
O=C(c1ccoc1)N1CCN(c2cc(-c3cccc(F)c3)nc3cc(-c4cccc(Cl)c4)nn23)CC1	9.78 µM
Cn1nc(C(C)(C)C)cc1C(=O)N1CCCCC1c1cc(C(=O)Nc2cccc3c2CCCC3)no1 (configuration not stated)	10.2 µM
CCN1CCN(Cc2ccc(NC(=O)c3ccc(C)c(NC(=O)c4c[nH]c5cc(C(F)(F)F)ccc5c4=O)c3)cc2C(F)(F)F)CC1	3.13 µM
CCOC(=O)c1c(NC(=O)COc2cccc3c2CCN(C)C3=O)sc2c1CCC2	5.44 µM
CC(=O)N1c2ccc(S(=O)(=O)N3CCC(C(=O)N4CCN(c5cccc(C(F)(F)F)c5)CC4)CC3)cc2CC1C (configuration not stated)	1.28 µM
O=C(Nc1nc(-c2ccccn2)cs1)c1ccc(Br)s1	1 µM
CCOC(=O)N1CCN(c2ccc(S(=O)(=O)N(Cc3ccccc3)Cc3ccccc3)cn2)CC1	2.59 µM

SMILES	AC50
Cc1ccc(C)c(NC(=O)CN(C)C(=O)c2cccc(S(=O)(=O)N3CCN(Cc4ccccc4)CC3)c2)c1	3.5 µM
CCOC(=O)C1CCCN(S(=O)(=O)c2ccc(S(=O)(=O)N(CC)CC)cc2)C1 (configuration not stated)	0.512 µM
Oc1c(C(c2ccccc2Cl)N2CCCC2)ccc2cccnc12 (configuration not stated)	5.77 µM
COc1ccc(NS(=O)(=O)c2ccc(C(=O)N3CCCCCC3)cc2)cc1	4.51 µM
COc1ccc(CNCCC(c2ccc(OC(C)C)cc2)c2ccccc2OC)cc1OC (configuration not stated)	4.35 µM
CCOC(=O)Cn1c(=O)c(-c2cc(Br)ccc2N)nc2ccccc21	0.758 µM
CC(C)(C)c1cc(C(=O)N/N=C/c2ccccc2O)n(-c2ccccc2)n1	2.25 µM
COc1ccc(C2=NS(=O)(=O)N(C)C(C(=O)N3CCc4ccccc4C3)=C2)cc1OC	4.99 µM
COc1cc(NC(=O)COc2cccc3c2OC(C)(C)C3)cc(OC)c1OC	4.38 µM
CN(C)S(=O)(=O)c1cccc(N=c2scc(-c3ccc4c(c3)NC(=O)CO4)n2CC2CCCO2)c1 (configuration not stated)	14 µM
Nc1cc(Cl)c2nonc2c1[N+](=O)[O-]	5.37 µM
O=C(Nc1ccc(F)cc1)c1nc(S(=O)(=O)Cc2ccccc2)ncc1Cl	3.38 µM
Cc1ccc(-n2nnnc2-c2cnc(-c3cccnc3)nc2C(F)(F)F)cc1	5.89 µM
C[C@@H]1C[C@@H]2O[C@H]2/C=C\C=C\C(=O)Cc2c(Cl)c(O)cc(O)c2C(=O)O1	6.4 µM
OCCCNc1nccc(-c2cc(Nc3cccc(Cl)c3)ncn2)n1	2.61 µM
Cc1ccc2c(c1)nnn2C1CCN(S(=O)(=O)c2ccc(C(=O)N3C(C)CCCC3C)cc2)CC1 (configuration not stated)	0.695 µM
Cc1ccc(S(=O)(=O)NCCc2cc3ccc(C)cc3[nH]c2=O)cc1	> 70 µM (inactive)
CC(=O)c1ccc(N2CCN(c3ccc(S(=O)(=O)NCCCN(C)C)cc3[N+](=O)[O-])CC2)cc1	3.78 µM
COc1ccccc1-c1cc(C(F)(F)F)nc(S(=O)(=O)CCCC(=O)N2CCOCC2)n1	3.02 µM
CCN(CC)S(=O)(=O)c1ccc(N2CCOCC2)c(NC(=O)c2nn(C(C)C)c(=O)c3ccccc23)c1	15.6 µM
COc1ccc(-n2c(C)cc(C(=O)CSc3nnc(-c4cccs4)o3)c2C)cc1	5.03 µM
COc1cc(SC)ccc1C(=O)Nc1nc2ccccc2[nH]1	< 0.26 µM
CCOc1ccc(CN(C)c2ccc(S(=O)(=O)N3CCN(C)CC3)cc2[N+](=O)[O-])cc1OC	3.38 µM
Cc1ccc2cc(CN(CC3CCCO3)C(=O)NC3CCCCC3)c(=O)[nH]c2c1C (configuration not stated)	4.49 µM
